Measured values: patent EP0490549B1, “Stabilisation of pharmaceutical compositions comprising calcitonin” (CIBA-GEIGY AG, priority 1990, dated 1995)
Entries after “also recorded” stand apart in the source; their conditions may differ. Where two headings read alike, the source gives them in different places.

What was measured:
[1] = Stability of aqueous hCT solutions against fibrillation or precipitation (solution remains clear on storage); settings: for solution is stable for: Example 1 repeated (5 mg/ml hCT) with acetic acid replaced by the named acid; for ability of an acid to produce a stable solution of hCT (solution remains clear): storing for 24 hours at 25°C
Experimental: The ability of an acid to produce a stable solution can be readily determined by making up a solution and storing it for 24 hours at 25°C.
Example 1 is repeated except that the solutions also contain 0.5% hydroxypropylmethylcellulose.

[2] = as above; format: physicochemical; settings: 5 mg/ml hCT; acetic acid 0.0001%, 0.001%, 0.01%, 0.1% and 1.0%; after 8 months
[3] = Extrapolated time of fibrillation (ln/ln plot of fibrillation time against hCT concentration); settings: at 4°C; solutions with 5-9 mg/ml hCT in 0.001% acetic acid; from measurements up to 100 mg/ml hCT using the ln/ln plot
[4] = additive mixed with the hCT solution after preparation

| Molecule | solution is stable for [1] | ability of an acid to produce a stable solution of hCT (solution remains clear) [1] | further results |
| --- | --- | --- | --- |
| OC[C@H]1O[C@@](CO)(O[C@H]2O[C@H](CO)[C@@H](O)[C@H](O)[C@H]2O)[C@@H](O)[C@@H]1O [sucrose] |  |  | effect of additive on the stability of the hCT solution [1]: do not diminish the stability |
| CC(C)(C)CC(C)(C)c1ccc(OCCOCC[N+](C)(C)Cc2ccccc2)cc1 [benzethonium chloride] |  |  | effect of additive on the stability of the hCT solution [1, 4]: do not diminish the stability; also recorded: improve the stability |
| O=C(O)CC(=O)O [malonic acid] | over 4 days | form stable solutions |  |
| O=CO [formic acid] | over 4 days | form stable solutions |  |
| CCO [ethanol] |  |  | effect of additive on the stability of the hCT solution [1]: do not diminish the stability |
| OC[C@H]1O[C@@H](O[C@H]2[C@H](O)[C@@H](O)C(O)O[C@@H]2CO)[C@H](O)[C@@H](O)[C@H]1O (stereo partly shown) [lactose] |  |  | effect of additive on the stability of the hCT solution [1]: do not diminish the stability |
| CC[C@H](C)[C@H](NC(=O)[C@H](C)NC(=O)[C@@H](NC(=O)[C@H](CCC(N)=O)NC(=O)[C@@H]1CCCN1C(=O)[C@H](Cc1ccccc1)NC(=O)[C@@H](NC(=O)[C@H](Cc1c[nH]cn1)NC(=O)[C@H](Cc1ccccc1)NC(=O)[C@H](CCCCN)NC(=O)[C@H](CC(N)=O)NC(=O)[C@H](Cc1ccccc1)NC(=O)[C@H](CC(=O)O)NC(=O)[C@H](CCC(N)=O)NC(=O)[C@@H](NC(=O)[C@H](Cc1ccc(O)cc1)NC(=O)[C@@H](NC(=O)CNC(=O)[C@H](CC(C)C)NC(=O)[C@H](CCSC)NC(=O)[C@@H]1CSSC[C@H](N)C(=O)NCC(=O)N[C@@H](CC(N)=O)C(=O)N[C@@H](CC(C)C)C(=O)N[C@@H](CO)C(=O)N[C@@H]([C@@H](C)O)C(=O)N1)[C@@H](C)O)[C@@H](C)O)[C@@H](C)O)[C@@H](C)O)C(=O)NCC(=O)N[C@H](C(=O)NCC(=O)N[C@@H](C)C(=O)N1CCC[C@H]1C(N)=O)C(C)C [hCT] |  |  | stability of solution [2]: stable and perfectly clear; stability predicted [3]: more than 5 years |
| O=C(O)CCC(=O)O [succinic acid] | over 4 days |  |  |
| N[C@H](CCC(=O)O)C(=O)O [D-glutamic acid] |  | do not form stable solutions |  |
| O=C(O)C(O)C(O)C(=O)O [L-α-tartaric acid] | over 4 days | form stable solutions |  |
| O=C(O)CCCC(=O)O [glutaric acid] | over 4 days | form stable solutions |  |
| O=C(O)[C@H](O)[C@@H](O)[C@H](O)[C@H](O)CO [gluconic acid] |  | do not form stable solutions |  |
| N[C@@H](CC(=O)O)C(=O)O [aspartic acid] |  | do not form stable solutions |  |
| benzalkonium chloride |  |  | effect of additive on the stability of the hCT solution [1, 4]: do not diminish the stability |
| O=C(O)C(O)C(O)C(=O)O (racemic) [DL-tartaric acid] | over 4 days | form stable solutions |  |
| OC[C@H]1O[C@H](O[C@H]2O[C@H](CO)[C@@H](O)[C@H](O)[C@H]2O)[C@H](O)[C@@H](O)[C@@H]1O [trehalose] |  |  | effect of additive on the stability of the hCT solution [1]: do not diminish the stability |
| O=C1O[C@H]([C@@H](O)CO)C(O)=C1O [ascorbic acid] | over 4 days | form stable solutions |  |
| [H]/N=C(\N/C(=N/[H])NCCCCCCNC(=N)NC(=N)Nc1ccc(Cl)cc1)Nc1ccc(Cl)cc1 [chlorhexidine diacetate] |  |  | effect of additive on the stability of the hCT solution [1]: do not diminish the stability |
| O=C(O)CCCCC(=O)O [adipic acid] | over 4 days | form stable solutions |  |
| N[C@@H](CCC(=O)O)C(=O)O [L-glutamic acid] | over 4 days |  |  |
| O=C(O)CN(CCN(CC(=O)O)CC(=O)O)CC(=O)O [ethylene - diamine tetraacetic acid] |  | form stable solutions |  |
| Oc1ccccc1 [phenol] |  | form stable solutions |  |
| OC[C@@H](O)[C@@H](O)[C@H](O)[C@H](O)CO [mannitol] |  |  | effect of additive on the stability of the hCT solution [1]: do not diminish the stability |
| O=C(O)/C=C\C(=O)O [maleic acid] |  | do not form stable solutions |  |
| sulphuric acid |  | do not form stable solutions |  |
| Cl [hydrochloric acid] | over 4 days | form stable solutions |  |
| O=C(O)CC(O)(CC(=O)O)C(=O)O [citric acid] | over 4 days | form stable solutions |  |
